Data set [1] deals with NB-100 neuroblastoma multicellular tumor spheroids. As to the kind of experiment: In vitro chemosensitization with methotrexate, MTS. To be noted: 5 µM MTX for 24 hours. The format is cell-based, human.
Data set [2] is described as follows: Distribution of drug between PFC phase and aqueous phase of Dispersion B. The format is physicochemical. To be noted: for Drug in emulsion÷ drug in aqueous phase: Dispersion B, blending for 30 minutes. As for the experimental part: (§1) In the course of in vitro chemosensitization studies in the LAN-1 human neuroblastoma spheroid system, conducted substantially as described in Example 4 above except for Adriamycin as the chemotherapeutic agent, it was noted that the anti-tumor activity of the Adriamycin was inhibited by the PFC material (PFC Dispersion B). […] This was tested by dissolving in water a radio-labelled analogue of Adriamycin, C^14-Daunomycin, adding Dispersion B (or in separate experiments, the neat PFC component of Dispersion B), blending for 30 minutes, separating the PFC phase from the aqueous phase, and determining the distribution of drug between the phases. Table VIII below reports the results of the experiment and similar experiments with three other drugs. It will be noted that the more lipophilic Duanomycin preferentially partitioned into the PFC phase whereas the other, less lipophilic, drugs favored the aqueous phase. It was concluded that although the PFC may have an inhibitory effect on less lipophilic drugs, the delivery of lipophilic drugs will be enhanced by the PFC.
The partitioning of the Vincristine between the PFC and aqueous phases of Dispersion B was first studied in comparison with Daunomycin, as reported in Table IX below, where "PFC" means the PFC phase of Dispersion B.

The test system of a further data set is P388 leukemia. To be noted: cited from earlier work.
Data set [3] relates to MCa-11 mammary carcinoma. As to the kind of experiment: In vivo chemosensitization with Vincristine. More on the design: species or system BALB/c mice. To be noted: Vincristine 1.5 mg/kg i.p. single dose, or 20 ml/kg Dispersion B i.v. with carbogen breathing, each alone.
Description: The MCa-11 mammary carcinoma was transplanted into the thigh of BALB/c mice and grown to a diameter of 6 mm, at which time the mice were treated. Control mice received an injection of saline, while Vincristine treatment consisted of a single dose of 1.5 mg/kg of Vincristine administered intraperitoneally. PFC treatment consisted of an i.v. injection of 20 ml/kg of Dispersion B, followed by two hours of breathing carbogen (95% 02/5% C02), and injection of saline of Vincristine as before, followed by another two hours of carbogen breathing.
Data set [4] can be described thus: Octanol:water partition coefficient.
Data set [5] deals with LAN-1 human neuroblastoma spheroid system. In words: In vitro chemosensitization with Adriamycin, spheroids. To be noted: in the presence of PFC Dispersion B. The class given is cell-based. As for the experimental part:
as §1

For data set [6], the system named is MCa-11 mammary carcinoma. As to the kind of experiment: In vivo chemosensitization with cyclophosphamide. On the set-up: species or system BALB/c mice. To be noted: cyclophosphamide 75 mg/kg i.p. single dose. As for the experimental part: The combined use of PFC dispersion (Dispersion B) and high oxygen breathing for enhancement of the anti-tumor effects of cyclophosphamide ("CYC") was investigated with respect to treatment of MCa-11 mammary carcinoma transplanted into the right hind leg of female BALB/c mice. The tumors were allowed to grow to 2 mm at which point the animals were treated as described in Table VII below, wherein the cyclophosphamide, obtained commercially, was dissolved in distilled water and injected in a volume equal to […] of body weight. Three to six animals per treatment group were used in the study. On the day of treatment and three to five times per week thereafter, the tumors were sized with vernier calipers.

[7] abbreviates: 1 hour, PFC phase of Dispersion B.

Marks after values point to notes of the source that are not given here.

One may read the logP as the decadic logarithm of the partition coefficient of the neutral form, usually between octanol and water. A low value points to a more hydrophilic compound.

Consider `CN(Cc1cnc2nc(N)nc(N)c2n1)c1ccc(C(=O)N[C@@H](CCC(=O)O)C(=O)O)cc1` [MTX, methotrexate], for which the “Lipophilicity index (partition coefficient of the drug between octanol and water)” value came to 0.014. The “D8, number of days required for the MTS to grow 8 units or 200 µm beyond their original diameter” value in data set [1] stood at 9.52 days. Besides, in data set [1] (Day 0, 1 unit=25 µm), the MTS sizes stood at 9.83±0.17 microscope units. Moreover, in data set [1] (Day 1), the MTS sizes is 9.74 microscope units. Further, the MTS sizes in data set [1] (Day 4) was 10.69 microscope units. In addition, the MTS sizes in data set [1] (Day 6) is given as 11.76 microscope units. Also, the MTS sizes in data set [1] (Day 8) is 13.93 microscope units. Further, in data set [1] (Day 12), the MTS sizes worked out at 18.93 microscope units. Also, the MTS sizes in data set [1] (Day 15) worked out at 21.83 microscope units. Besides, the “Drug in emulsion÷ drug in aqueous phase” value in data set [2] stood at 0.07.

With `FC(F)(F)C(F)(F)C(F)(F)C(F)(F)C(F)(F)C(F)(F)C(F)(F)C(F)(F)Br` [perfluorooctyl bromide], the local toxicity entry in the data set with P388 leukemia (mouse, in vivo) was “local toxic reactions in the peritoneal cavity were observed”. Further, the “improvement in therapy (survival time)” value in the data set on P388 leukemia (oxygen-saturated neat compound injected 24 hours before graded doses of whole body X-rays, versus salt solution) was “failed to show a significant improvement in therapy”.

In the case of `CC[C@]1(O)C[C@H]2CN(CCc3c([nH]c4ccccc34)[C@@](C(=O)OC)(c3cc4c(cc3OC)N(C=O)[C@H]3[C@@](O)(C(=O)OC)[C@H](OC(C)=O)[C@]5(CC)C=CCN6CC[C@]43[C@@H]65)C2)C1` [Vincristine], in the data set on MCa-11 mammary carcinoma [3], the “effect on tumor growth” value is listed as “no effect on tumor growth”. This compound showed a logP in data set [4] of 2.83. The “PFC/H2O (ratio of concentrations in the emulsion and the aqueous phases)” value in data set [2] (setting [7]) is listed as 2.69; in data set [2] (3 hours, determined via bioassay in the LAN-1 neuroblastoma spheroid system), 9.10^c.

In the case of `COc1cccc2c1C(=O)c1c(O)c3c(c(O)c1C2=O)C[C@@](O)(C(=O)CO)C[C@@H]3O[C@H]1C[C@H](N)[C@H](O)[C@H](C)O1` [Adriamycin], the anti-tumor activity entry in data set [5] is given as “inhibited”.

As to `COc1cccc2c1C(=O)c1c(O)c3c(c(O)c1C2=O)C[C@@](O)(C(C)=O)C[C@@H]3O[C@H]1C[C@H](N)[C@H](O)[C@H](C)O1` [Daunomycin], in data set [4], the logP is -0.102. For the same compound, the “PFC/H2O (ratio of concentrations in the emulsion and the aqueous phases)” value came to 1.23 in data set [2] (setting [7]) and 3.80 in data set [2] (3 hours, PFC phase of Dispersion B). In addition, in data set [2], the “Drug in emulsion÷ drug in aqueous phase” value stood at 3.77.

On to `NCCCNCCSP(=O)(O)O` [WR-2721, S - 2 - (3 - aminopropylamino) ethylphosphorothioic acid], for which the logP in data set [4] was -2.7. Moreover, in data set [2], the “Drug in emulsion÷ drug in aqueous phase” value was 0.05.

For `O=P1(N(CCCl)CCCl)NCCCO1` (stereo not drawn) [Cyclophosphamide, cyclophosphamide], the “Days to grow 6 mm” value in the data set with MCa-11 mammary carcinoma [6] (interpolated from the tumor growth curves) amounted to 17.8 days. Besides, the Growth delay with MCa-11 mammary carcinoma [6] (relative to untreated controls) turned out to be 5.3.

Compound `COCC(O)Cn1ccnc1[N+](=O)[O-]` (stereo not drawn) [Misonidazole] gave a logP in data set [4] of -0.367. For the same compound, the “Drug in emulsion÷ drug in aqueous phase” value in data set [2] is on record as 0.04.
